Results on 6 molecules are retold here after the kinase profiling compilation of Christmann-Franck et al. (2016).

Usually inhibition stands for the drop in the measured response relative to a control, in per cent. A low value points to a weak effect.

Experiment in all cases: KINOMEscan competition binding
One assay has as its target MAP3K5 (human) (UniProt Q99683). The settings on record: compound 10.0 µM.
The next assay deals with ULK3 (mouse). To be noted: compound 10.0 µM; accession and sequence are those of the human protein.
A further assay deals with CSNK1G2 (human) (UniProt P78368). To be noted: compound 10.0 µM.
CSNK1G2 (human), sequence (P78368 whole entry, looked up): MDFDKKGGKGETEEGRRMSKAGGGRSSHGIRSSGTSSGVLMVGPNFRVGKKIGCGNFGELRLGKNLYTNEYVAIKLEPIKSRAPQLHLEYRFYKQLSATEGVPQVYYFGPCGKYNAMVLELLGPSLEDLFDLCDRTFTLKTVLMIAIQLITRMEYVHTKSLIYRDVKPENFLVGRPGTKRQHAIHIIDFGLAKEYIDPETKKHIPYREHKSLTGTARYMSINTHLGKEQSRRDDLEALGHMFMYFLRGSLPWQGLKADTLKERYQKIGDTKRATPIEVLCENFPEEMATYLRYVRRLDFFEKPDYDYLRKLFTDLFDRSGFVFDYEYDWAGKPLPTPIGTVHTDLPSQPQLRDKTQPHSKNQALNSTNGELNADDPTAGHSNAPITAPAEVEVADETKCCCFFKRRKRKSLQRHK
For a further assay, the target named is MAP3K12 (human) (UniProt Q12852). To be noted: compound 10.0 µM.
MAP3K12 (human), sequence (Q12852 whole entry, looked up): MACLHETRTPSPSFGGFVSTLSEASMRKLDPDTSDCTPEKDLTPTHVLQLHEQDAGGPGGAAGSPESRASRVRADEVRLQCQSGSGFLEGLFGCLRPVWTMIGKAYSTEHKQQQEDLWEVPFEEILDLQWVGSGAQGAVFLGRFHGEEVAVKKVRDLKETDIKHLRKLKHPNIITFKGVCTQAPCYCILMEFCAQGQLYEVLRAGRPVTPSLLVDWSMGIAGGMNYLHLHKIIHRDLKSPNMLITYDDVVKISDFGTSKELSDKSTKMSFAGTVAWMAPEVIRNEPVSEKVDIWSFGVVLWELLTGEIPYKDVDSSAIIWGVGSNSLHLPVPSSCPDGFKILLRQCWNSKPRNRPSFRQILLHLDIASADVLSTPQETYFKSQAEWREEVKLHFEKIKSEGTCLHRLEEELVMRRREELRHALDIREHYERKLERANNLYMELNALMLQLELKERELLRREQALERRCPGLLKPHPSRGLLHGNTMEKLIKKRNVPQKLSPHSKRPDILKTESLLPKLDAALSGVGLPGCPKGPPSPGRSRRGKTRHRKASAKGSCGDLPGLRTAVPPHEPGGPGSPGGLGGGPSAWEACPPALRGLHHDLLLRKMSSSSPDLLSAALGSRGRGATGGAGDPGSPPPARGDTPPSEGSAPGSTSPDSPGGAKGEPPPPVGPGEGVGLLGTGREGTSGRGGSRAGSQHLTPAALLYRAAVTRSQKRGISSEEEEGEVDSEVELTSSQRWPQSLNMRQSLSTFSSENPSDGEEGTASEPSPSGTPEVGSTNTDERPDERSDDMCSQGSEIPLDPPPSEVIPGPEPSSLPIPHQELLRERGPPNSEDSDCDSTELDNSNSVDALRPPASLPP
Another assay addresses RPS6KA1 KD1 (human) (UniProt Q15418). The settings on record: compound 10.0 µM.
A further assay deals with MYLK3 (human) (UniProt Q32MK0). To be noted: compound 10.0 µM.
MYLK3 (human), sequence (Q32MK0 whole entry, looked up): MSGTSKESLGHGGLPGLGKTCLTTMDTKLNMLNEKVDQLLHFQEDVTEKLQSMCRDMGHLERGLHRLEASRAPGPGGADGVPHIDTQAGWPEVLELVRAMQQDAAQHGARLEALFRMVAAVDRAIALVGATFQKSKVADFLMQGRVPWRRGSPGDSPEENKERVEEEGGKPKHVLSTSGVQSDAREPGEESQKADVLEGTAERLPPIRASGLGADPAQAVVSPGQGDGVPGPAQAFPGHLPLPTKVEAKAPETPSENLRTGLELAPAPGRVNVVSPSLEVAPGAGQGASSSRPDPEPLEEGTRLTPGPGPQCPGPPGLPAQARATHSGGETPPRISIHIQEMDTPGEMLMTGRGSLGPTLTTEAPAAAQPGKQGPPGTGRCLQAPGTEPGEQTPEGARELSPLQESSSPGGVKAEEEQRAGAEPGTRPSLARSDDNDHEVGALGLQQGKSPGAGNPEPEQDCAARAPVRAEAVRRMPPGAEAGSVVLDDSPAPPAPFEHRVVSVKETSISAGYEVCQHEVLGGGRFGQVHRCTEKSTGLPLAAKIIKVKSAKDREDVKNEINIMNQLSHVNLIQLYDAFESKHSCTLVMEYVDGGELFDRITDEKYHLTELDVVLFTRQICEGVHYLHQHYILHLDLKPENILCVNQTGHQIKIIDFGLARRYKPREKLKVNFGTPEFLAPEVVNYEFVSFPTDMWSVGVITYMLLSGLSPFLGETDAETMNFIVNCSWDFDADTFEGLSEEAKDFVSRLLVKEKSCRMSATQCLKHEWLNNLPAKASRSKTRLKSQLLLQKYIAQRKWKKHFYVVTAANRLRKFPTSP
Another assay addresses CDK19 (human) (UniProt Q9BWU1). To be noted: compound 10.0 µM.

RPS6KA1 KD1 (human), sequence (Q15418 whole entry, looked up): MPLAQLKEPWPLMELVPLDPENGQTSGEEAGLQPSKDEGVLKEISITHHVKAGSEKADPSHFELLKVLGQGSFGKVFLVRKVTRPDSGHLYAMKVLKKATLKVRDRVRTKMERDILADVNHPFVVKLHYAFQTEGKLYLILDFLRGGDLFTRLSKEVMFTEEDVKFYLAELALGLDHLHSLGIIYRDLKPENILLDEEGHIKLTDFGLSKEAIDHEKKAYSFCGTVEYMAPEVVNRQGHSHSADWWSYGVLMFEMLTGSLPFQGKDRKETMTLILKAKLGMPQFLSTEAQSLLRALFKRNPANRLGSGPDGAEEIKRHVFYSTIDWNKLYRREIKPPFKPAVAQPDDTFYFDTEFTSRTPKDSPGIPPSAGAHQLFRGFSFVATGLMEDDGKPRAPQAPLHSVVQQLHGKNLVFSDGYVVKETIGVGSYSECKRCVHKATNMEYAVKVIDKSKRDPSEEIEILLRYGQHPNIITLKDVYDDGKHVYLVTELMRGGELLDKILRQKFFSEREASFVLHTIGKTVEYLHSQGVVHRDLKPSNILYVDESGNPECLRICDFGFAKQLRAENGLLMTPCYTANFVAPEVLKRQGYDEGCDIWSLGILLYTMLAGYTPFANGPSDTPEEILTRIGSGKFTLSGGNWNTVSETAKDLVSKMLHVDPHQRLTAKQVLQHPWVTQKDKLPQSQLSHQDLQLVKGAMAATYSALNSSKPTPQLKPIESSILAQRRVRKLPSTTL
CDK19 (human), sequence (Q9BWU1 whole entry, looked up): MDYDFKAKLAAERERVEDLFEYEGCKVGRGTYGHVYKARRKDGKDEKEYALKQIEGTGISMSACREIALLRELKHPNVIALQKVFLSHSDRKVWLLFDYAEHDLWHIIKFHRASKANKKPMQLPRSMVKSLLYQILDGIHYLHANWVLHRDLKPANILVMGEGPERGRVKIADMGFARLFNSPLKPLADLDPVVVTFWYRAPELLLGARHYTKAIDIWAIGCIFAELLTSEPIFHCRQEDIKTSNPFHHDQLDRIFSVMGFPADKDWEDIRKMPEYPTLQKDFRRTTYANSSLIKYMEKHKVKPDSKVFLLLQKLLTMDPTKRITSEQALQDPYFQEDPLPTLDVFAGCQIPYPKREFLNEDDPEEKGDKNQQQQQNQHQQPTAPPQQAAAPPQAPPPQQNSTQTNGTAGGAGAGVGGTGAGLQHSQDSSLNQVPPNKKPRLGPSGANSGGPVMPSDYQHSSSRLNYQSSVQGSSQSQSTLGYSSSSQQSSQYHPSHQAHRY
MAP3K5 (human), sequence (Q99683 whole entry, looked up): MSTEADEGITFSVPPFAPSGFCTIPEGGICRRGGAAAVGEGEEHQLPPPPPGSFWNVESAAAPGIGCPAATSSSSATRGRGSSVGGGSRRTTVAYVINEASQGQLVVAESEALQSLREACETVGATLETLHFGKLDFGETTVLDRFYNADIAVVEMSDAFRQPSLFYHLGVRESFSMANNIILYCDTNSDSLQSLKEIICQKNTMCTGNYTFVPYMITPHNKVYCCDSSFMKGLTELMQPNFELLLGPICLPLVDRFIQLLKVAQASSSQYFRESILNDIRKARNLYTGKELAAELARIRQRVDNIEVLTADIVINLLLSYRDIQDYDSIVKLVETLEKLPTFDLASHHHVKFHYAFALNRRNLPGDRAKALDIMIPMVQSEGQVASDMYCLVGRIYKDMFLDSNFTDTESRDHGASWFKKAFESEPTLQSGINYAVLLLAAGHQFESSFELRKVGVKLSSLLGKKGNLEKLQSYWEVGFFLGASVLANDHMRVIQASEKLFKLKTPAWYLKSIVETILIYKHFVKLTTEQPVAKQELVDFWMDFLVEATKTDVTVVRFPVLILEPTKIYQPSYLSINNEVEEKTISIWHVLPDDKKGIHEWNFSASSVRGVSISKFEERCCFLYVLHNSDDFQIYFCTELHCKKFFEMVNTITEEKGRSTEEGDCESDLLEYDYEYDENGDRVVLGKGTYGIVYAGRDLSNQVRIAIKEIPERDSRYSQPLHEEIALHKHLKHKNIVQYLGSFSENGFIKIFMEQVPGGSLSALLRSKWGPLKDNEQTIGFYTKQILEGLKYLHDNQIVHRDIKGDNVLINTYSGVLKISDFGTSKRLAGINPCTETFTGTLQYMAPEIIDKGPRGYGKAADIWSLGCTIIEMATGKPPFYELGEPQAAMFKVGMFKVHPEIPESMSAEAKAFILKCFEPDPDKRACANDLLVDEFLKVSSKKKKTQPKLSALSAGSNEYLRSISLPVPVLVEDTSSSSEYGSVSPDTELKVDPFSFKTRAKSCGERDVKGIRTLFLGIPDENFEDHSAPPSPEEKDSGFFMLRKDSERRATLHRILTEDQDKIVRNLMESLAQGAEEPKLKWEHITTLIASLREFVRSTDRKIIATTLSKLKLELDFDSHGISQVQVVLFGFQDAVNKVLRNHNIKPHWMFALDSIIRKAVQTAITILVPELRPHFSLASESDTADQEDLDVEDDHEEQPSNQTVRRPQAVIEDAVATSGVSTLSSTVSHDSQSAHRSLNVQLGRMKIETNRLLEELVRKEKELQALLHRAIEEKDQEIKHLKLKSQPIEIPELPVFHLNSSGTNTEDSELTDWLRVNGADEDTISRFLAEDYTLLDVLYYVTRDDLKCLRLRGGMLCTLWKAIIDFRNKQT

`O[C@H]1CC[C@H](Nc2nccc(-c3n[nH]c4ccccc34)n2)CC1`: the inhibition of binding at MAP3K5 (human) was < 50%.

As for `O=C([C@H]1CC[C@H](Nc2nccc(-n3nnc4ccccc43)n2)CC1)N1CCOCC1`, the inhibition of binding in the assay with ULK3 (mouse) was < 50%.

As to `N[C@H]1CC[C@H](Nc2nccc(-n3nnc4ccccc43)n2)CC1`, the inhibition of binding with ULK3 (mouse) was < 50%.

On to `O[C@H]1CC[C@H](Nc2nccc(-n3nnc4ccccc43)n2)CC1`, for which the inhibition of binding on CSNK1G2 (human) and at RPS6KA1 KD1 (human) was < 50% each time. In addition, the inhibition at MAP3K12 (human) was < 50%.

In the case of `O[C@H]1CC[C@H](Nc2nccc(-n3ncc4ccccc43)n2)CC1`, the inhibition of binding at MYLK3 (human) and at RPS6KA1 KD1 (human) was < 50% throughout. Further, the inhibition at MAP3K12 (human) and at CDK19 (human) was < 50% throughout.

In the case of `O[C@H]1CC[C@H](Nc2nccc(-n3ccc4ccccc43)n2)CC1`, the inhibition at MAP3K12 (human) was < 50%. Also, the inhibition of binding at RPS6KA1 KD1 (human) was < 50%.
